pEC50: −log10 of the molar value.

The source of these data is US20050064485A1, “Multiplex binding and activity assays” (priority 2003, published 2005).

Data set [1] has as its target T1, Epidermal Growth Factor Receptor (EGFR) Tyrosine Kinase (Homo sapiens, UniProt P00533).
T1 construct: purchased PanVera, Madison Wis; P2628
Briefly: EGFR kinase multiplex FP/TR-RET library screen and follow-up titration. In kind it is biochemical. The note with it: two-fold dilution series.

A short description of data set [2]: Precipitation of poorly correlating compounds in the EGFR kinase assay. It counts as physicochemical. Conditions: EGFR kinase assay conditions.
For data set [3], the target named is PTK labeled tracer F-ADE(pY)LIPQQS. Briefly: FP direct binding, antibody titrated (10 nM to 9.8 pM) against 1 nM tracer.

T1 sequence (P00533 25-1210, species assumed): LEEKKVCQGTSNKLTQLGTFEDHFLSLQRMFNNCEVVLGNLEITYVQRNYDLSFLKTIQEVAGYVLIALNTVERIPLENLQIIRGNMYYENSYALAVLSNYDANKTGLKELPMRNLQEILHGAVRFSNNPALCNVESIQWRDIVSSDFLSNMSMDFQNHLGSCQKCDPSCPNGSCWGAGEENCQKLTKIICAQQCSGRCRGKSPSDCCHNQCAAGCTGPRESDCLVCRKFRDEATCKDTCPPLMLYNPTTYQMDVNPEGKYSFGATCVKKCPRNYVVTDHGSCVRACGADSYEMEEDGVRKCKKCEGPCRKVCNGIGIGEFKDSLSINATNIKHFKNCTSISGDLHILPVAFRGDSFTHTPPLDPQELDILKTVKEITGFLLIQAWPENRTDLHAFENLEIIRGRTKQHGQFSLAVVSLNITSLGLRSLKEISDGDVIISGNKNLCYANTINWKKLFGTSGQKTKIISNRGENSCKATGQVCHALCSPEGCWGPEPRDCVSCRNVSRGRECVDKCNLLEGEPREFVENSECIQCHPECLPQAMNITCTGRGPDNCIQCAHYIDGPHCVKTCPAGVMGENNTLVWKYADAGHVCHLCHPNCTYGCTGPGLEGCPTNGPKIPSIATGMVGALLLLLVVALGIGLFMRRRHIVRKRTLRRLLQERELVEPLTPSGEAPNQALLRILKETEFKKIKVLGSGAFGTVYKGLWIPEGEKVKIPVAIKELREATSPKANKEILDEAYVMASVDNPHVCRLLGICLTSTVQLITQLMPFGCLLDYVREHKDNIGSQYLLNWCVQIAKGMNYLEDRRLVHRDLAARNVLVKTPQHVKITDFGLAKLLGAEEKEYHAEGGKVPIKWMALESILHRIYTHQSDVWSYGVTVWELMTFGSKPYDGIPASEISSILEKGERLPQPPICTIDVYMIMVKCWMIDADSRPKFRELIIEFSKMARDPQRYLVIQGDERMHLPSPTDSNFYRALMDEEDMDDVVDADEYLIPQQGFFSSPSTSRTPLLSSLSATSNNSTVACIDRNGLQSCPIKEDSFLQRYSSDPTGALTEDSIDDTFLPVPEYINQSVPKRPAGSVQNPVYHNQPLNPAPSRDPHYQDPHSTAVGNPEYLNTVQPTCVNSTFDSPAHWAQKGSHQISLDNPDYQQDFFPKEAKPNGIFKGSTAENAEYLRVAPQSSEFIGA

Regarding `NC(=O)c1cc(N2CC2)c([N+](=O)[O-])cc1[N+](=O)[O-]` [CB-1954, CB 1954], the inhibitor on re-assay entry in data set [1] is on record as “neither was seen to be an inhibitor”. In the case of `O=C1Nc2ccc(I)cc2/C1=C/c1cc(Br)c(O)c(Br)c1` [GW5074], the precipitation in assay result in data set [2] is given as “precipitate”. Consider `CC(C)[C@@]1(NC(=O)[C@@H]2C=C3c4cccc5[nH]cc(c45)C[C@H]3N(C)C2)O[C@@]2(O)[C@@H]3CCCN3C(=O)[C@H](Cc3ccccc3)N2C1=O` [Ergocristine], for which the precipitation in assay entry in data set [2] was “precipitate”.

Consider “Tb-chelate labeled PY72 (anti-phosphotyrosine) IgG antibody”, for which the pEC50 in data set [3] is 9.00.

Turning to `Oc1ccccc1O` [Pyrocatechol], in data set [1], the inhibitor on re-assay result is reported as “neither was seen to be an inhibitor”.

A word on the pEC50: it is −log10 of the EC50, conventionally taken in molar units. Read a low pEC50 as a large EC50.
